Tests used:
Assay type in all cases: in vivo
[1] = system: umbrella sedge (Cyperus difformis); test: Test B flooded paddy test; conditions: for Plant response rating, Sedge, Umbrella: Flood (flooded paddy test), 13 to 15 days; for Sedge, Umbrella plant response rating: Flood, 31 g ai/ha, scale 0 to 100 (0 no effect, 100 complete control)
In short: (§1)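 Post-flood paddy application: compounds are introduced into water 3 cm deep over the soil, reaching plants at the 2-leaf stage. The water level is maintained, and after 13–15 days under greenhouse conditions, response is judged by eye relative to controls, where 100 means complete control.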

[2] = system: barnyardgrass (Echinochloa crus-galli); test: Test B flooded paddy test; conditions: for Plant response rating, Barnyardgrass: Flood (flooded paddy test), 13 to 15 days; for Barnyardgrass plant response rating: Flood, 31 g ai/ha, scale 0 to 100 (0 no effect, 100 complete control)
In short: as §1

rice (Oryza sativa) = test: Test B flooded paddy test; conditions: for Plant response rating, Rice: Flood (flooded paddy test), 13 to 15 days; for Rice plant response rating: Flood, 31 g ai/ha, scale 0 to 100 (0 no effect, 100 complete control)
In short: as §1

[3] = system: ducksalad (Heteranthera limosa); test: Test B flooded paddy test; conditions: for Plant response rating, Ducksalad: Flood (flooded paddy test), 13 to 15 days; for Ducksalad plant response rating: Flood, 31 g ai/ha, scale 0 to 100 (0 no effect, 100 complete control)
In short: as §1

[4] = system: barnyardgrass (Echinochloa crus-galli); test: Test A pre-/postemergence plant response; conditions: for Barnyardgrass plant response rating: visual injury, 0 to 100 scale (0 no effect, 100 complete control), approx. ten days
In short: (§2)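 Plants grown from seed in a loam soil and sand mix received test compounds both as a preemergence soil spray and, at the same time, as a postemergence spray at the one- to two-leaf stage. Injury was judged visually against untreated controls roughly ten days later, 0 meaning no effect and 100 complete control.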

corn (Zea mays) = test: Test A pre-/postemergence plant response; conditions: for Corn plant response rating: visual injury, 0 to 100 scale (0 no effect, 100 complete control), approx. ten days
In short: as §2

[5] = system: morningglory (Ipomoea spp.); test: Test A pre-/postemergence plant response; conditions: for Morningglory plant response rating: visual injury, 0 to 100 scale (0 no effect, 100 complete control), approx. ten days
In short: as §2

[6] = system: velvetleaf (Abutilon theophrasti); test: Test A pre-/postemergence plant response; conditions: for Velvetleaf plant response rating: visual injury, 0 to 100 scale (0 no effect, 100 complete control), approx. ten days
In short: as §2

[7] = system: wheat (Triticum aestivum); test: Test A pre-/postemergence plant response; conditions: for Wheat plant response rating: visual injury, 0 to 100 scale (0 no effect, 100 complete control), approx. ten days
In short: as §2

[8] = system: giant foxtail (Setaria faberii); test: Test A pre-/postemergence plant response; conditions: for Foxtail, Giant plant response rating: visual injury, 0 to 100 scale (0 no effect, 100 complete control), approx. ten days
In short: as §2

[9] = system: pigweed (Amaranthus retroflexus); test: Test A pre-/postemergence plant response; conditions: for Pigweed plant response rating: visual injury, 0 to 100 scale (0 no effect, 100 complete control), approx. ten days
In short: as §2

[10] = system: large crabgrass (Digitaria sanguinalis); test: Test A pre-/postemergence plant response; conditions: for Crabgrass, Large plant response rating: visual injury, 0 to 100 scale (0 no effect, 100 complete control), approx. ten days
In short: as §2

[11] = 125 g ai/ha, scale 0 to 100, 0 is no effect, 100 is complete control
[12] = Postemergence, 125 g ai/ha, 0 to 100 scale where 0 is no effect and 100 is complete control
[13] = Preemergence, 125 g ai/ha, 0 to 100 scale, 0 = no effect, 100 = complete control
[14] = Preemergence, 500 g ai/ha, 0 to 100 scale, 0 = no effect, 100 = complete control
[15] = 250 g ai/ha, flooded paddy test, visual rating on 0 to 100 scale (0 no effect, 100 complete control) after 13 to 15 days
[16] = 62 g ai/ha, scale of 0 to 100 where 0 is no effect and 100 is complete control

O=C1CCCC(O)=C1C(=O)c1cnc(-c2cc(F)cc(F)c2)n(C2CCCCC2)c1=O [Compound 181]
Plant response rating, Sedge, Umbrella [1, 11]: 85 | Sedge, Umbrella plant response rating [1]: 75 | Plant response rating, Barnyardgrass [2, 11]: 70 | Barnyardgrass plant response rating [2]: 0 | Plant response rating, Rice (rice (Oryza sativa); [11]): 65 | Rice plant response rating (rice (Oryza sativa)): 0 | Plant response rating, Ducksalad [3, 11]: 90 | Ducksalad plant response rating [3]: 85 | Plant response rating, Barnyardgrass [4, 12]: 100 | Barnyardgrass plant response rating ([4]; Postemergence, 500 g ai/ha): 100 | Plant response rating, Barnyardgrass [4, 13]: 20 | Plant response rating, Barnyardgrass [4, 14]: 100 | Plant response rating, Corn (corn (Zea mays); [12]): 10 | Corn plant response rating (corn (Zea mays); Postemergence, 500 g ai/ha): 50 | Plant response rating, Corn (corn (Zea mays); [13]): 0 | Plant response rating, Corn (corn (Zea mays); [14]): 0 | Plant response rating, Morningglory [5, 12]: 30 | Morningglory plant response rating ([5]; Postemergence, 500 g ai/ha): 100 | Plant response rating, Morningglory [5, 13]: 0 | Plant response rating, Morningglory [5, 14]: 30 | Plant response rating, Velvetleaf [6, 12]: 100 | Velvetleaf plant response rating ([6]; Postemergence, 500 g ai/ha): 100 | Plant response rating, Velvetleaf [6, 13]: 70 | Plant response rating, Velvetleaf [6, 14]: 100 | Plant response rating, Wheat [7, 12]: 30 | Wheat plant response rating ([7]; Postemergence, 500 g ai/ha): 60 | Plant response rating, Wheat [7, 13]: 0 | Plant response rating, Wheat [7, 14]: 20 | Plant response rating, Foxtail, Giant [8, 12]: 100 | Foxtail, Giant plant response rating ([8]; Postemergence, 500 g ai/ha): 100 | Plant response rating, Foxtail, Giant [8, 13]: 30 | Plant response rating, Foxtail, Giant [8, 14]: 80 | Plant response rating, Pigweed [9, 12]: 100 | Pigweed plant response rating ([9]; Postemergence, 500 g ai/ha): 100 | Plant response rating, Pigweed [9, 13]: 100 | Plant response rating, Pigweed [9, 14]: 100 | Plant response rating, Crabgrass, Large [10, 12]: 90 | Crabgrass, Large plant response rating ([10]; Postemergence, 500 g ai/ha): 90 | Plant response rating, Crabgrass, Large [10, 13]: 90 | Plant response rating, Crabgrass, Large [10, 14]: 100

Cc1ccc(Cl)cc1-n1c(-c2cccc(F)c2)ncc(C(=O)C2=C(O)CCCC2=O)c1=O [Compound 184]
Plant response rating, Flood, Sedge, Umbrella [1, 15]: 95 | Plant response rating, Sedge, Umbrella [1, 16]: 80 | Plant response rating, Sedge, Umbrella [1, 11]: 80 | Sedge, Umbrella plant response rating [1]: 65 | Plant response rating, Flood, Barnyardgrass [2, 15]: 25 | Plant response rating, Barnyardgrass [2, 16]: 0 | Plant response rating, Barnyardgrass [2, 11]: 20 | Barnyardgrass plant response rating [2]: 0 | Plant response rating, Flood, Rice (rice (Oryza sativa); [15]): 15 | Plant response rating, Rice (rice (Oryza sativa); [16]): 15 | Plant response rating, Rice (rice (Oryza sativa); [11]): 15 | Rice plant response rating (rice (Oryza sativa)): 15 | Plant response rating, Flood, Ducksalad [3, 15]: 100 | Plant response rating, Ducksalad [3, 16]: 100 | Plant response rating, Ducksalad [3, 11]: 100 | Ducksalad plant response rating [3]: 95 | Plant response rating, Barnyardgrass [4, 12]: 90 | Barnyardgrass plant response rating ([4]; Postemergence, 500 g ai/ha): 100 | Plant response rating, Barnyardgrass [4, 13]: 20 | Plant response rating, Barnyardgrass [4, 14]: 90 | Plant response rating, Corn (corn (Zea mays); [12]): 10 | Corn plant response rating (corn (Zea mays); Postemergence, 500 g ai/ha): 80 | Plant response rating, Corn (corn (Zea mays); [13]): 0 | Plant response rating, Corn (corn (Zea mays); [14]): 20 | Plant response rating, Morningglory [5, 12]: 50 | Morningglory plant response rating ([5]; Postemergence, 500 g ai/ha): 100 | Plant response rating, Morningglory [5, 13]: 10 | Plant response rating, Morningglory [5, 14]: 60 | Plant response rating, Velvetleaf [6, 12]: 100 | Velvetleaf plant response rating ([6]; Postemergence, 500 g ai/ha): 100 | Plant response rating, Velvetleaf [6, 13]: 80 | Plant response rating, Velvetleaf [6, 14]: 100 | Plant response rating, Wheat [7, 12]: 0 | Wheat plant response rating ([7]; Postemergence, 500 g ai/ha): 50 | Plant response rating, Wheat [7, 13]: 0 | Plant response rating, Wheat [7, 14]: 0 | Plant response rating, Foxtail, Giant [8, 12]: 90 | Foxtail, Giant plant response rating ([8]; Postemergence, 500 g ai/ha): 100 | Plant response rating, Foxtail, Giant [8, 13]: 30 | Plant response rating, Foxtail, Giant [8, 14]: 90 | Plant response rating, Pigweed [9, 12]: 100 | Pigweed plant response rating ([9]; Postemergence, 500 g ai/ha): 100 | Plant response rating, Pigweed [9, 13]: 70 | Plant response rating, Pigweed [9, 14]: 90 | Plant response rating, Crabgrass, Large [10, 12]: 80 | Crabgrass, Large plant response rating ([10]; Postemergence, 500 g ai/ha): 100 | Plant response rating, Crabgrass, Large [10, 13]: 30 | Plant response rating, Crabgrass, Large [10, 14]: 100

Source: patent publication US8952024B2, “Herbicidal pyrimidone derivatives” (E I du Pont de Nemours and Company, priority 2009, dated 2015)
